Test results taken from patent US11395479B2, “Method to reduce microbial bloom in poultry hatchery” (Novozymes A/S, priority 2016, dated 2022).

Experiments:
Format in all cases: in vivo, commercial broiler chicks
Conditions in all cases: gut of DOH chicks, n = 12, ± Std Err
Gram-negative bacteria = assay: Gut counts of day of hatch chicks: Gram-negative bacteria on MacConkey's agar
thermotolerant spores = assay: Gut counts of day of hatch chicks: thermotolerant spores on TSA
Method: Guts from chicks treated with either the bacterial formulation of example 3 or formaldehyde were tested for thermotolerant spores, presumptive Lactic Acid Bacteria (LAB) and Gram-negative bacteria.
Directly prior to chick removal from the hatchers twelve birds per treatment group were removed from the hatcher. Birds were transported (˜1 h) to an appropriate research facility and humanely euthanized by CO2 asphyxiation. Gut packs containing duodenum, ileum, and ceca were aseptically removed and separately homogenized. Gut samples were diluted in sterile saline at a 1:4 wt/vol rate. Ten-fold dilutions were made by placing 200 μl of the sample (N) into the first row of a sterile 96-well plate and sequentially diluting by transferring 20 μl to 180 μl sterile saline to the 10^−7 dilution. The dilutions (N to 10^−7) were plated by 10 μl drop onto both MRS agar and MacConkey's agar. For Trypticase soy agar (TSA) plating, the gut samples were Pasteurized at 80° C. for 10 min before transferring 200 μl into a 96 well plate. The rest of the dilutions and plating methods were the same as the MRS and MacConkey's agar. Agar plates were counted after 24 h of incubation at 37° C.

[1] = tested on: presumptive Lactic Acid Bacteria (LAB); assay: Gut counts of day of hatch chicks: presumptive LAB on MRS agar

Q: `C=O` [Formaldehyde] was tested. Which “presumptive Gram-negative bacteria counts, MacConkey's agar, Exp 1” value (Gram-negative bacteria; Exp 1) did it give?
A: The value was 8.39 ± 0.19 Log10 CFU/g.

Q: What about the “presumptive Gram-negative bacteria counts, MacConkey's agar, Exp 2” value (Gram-negative bacteria; Exp 2) of the same molecule?
A: Its value is 6.56 ± 0.83 Log10 CFU/g.

Q: What about the “presumptive Gram-negative bacteria counts, MacConkey's agar, Exp 3” value (Gram-negative bacteria; Exp 3) of the same molecule?
A: Its value is 3.9 ± 0.93 Log10 CFU/g.

Q: What about the “presumptive Gram-negative bacteria counts, MacConkey's agar, Exp 4” value (Gram-negative bacteria; Exp 4) of the same molecule?
A: Its value is 4.95 ± 0.99 Log10 CFU/g.

Q: And the “presumptive Gram-negative bacteria counts, MacConkey's agar, Exp 5” value (Gram-negative bacteria; Exp 5)?
A: The value was 2.84 ± 0.92 Log10 CFU/g.

Q: And the “thermotolerant spore counts, TSA, Exp 1” value (thermotolerant spores; Exp 1, samples not pasteurized)?
A: The value was 8.95 ± 0.2 Log10 CFU/g.

Q: What about the “thermotolerant spore counts, TSA, Exp 2” value (thermotolerant spores; Exp 2, pasteurized) of the same molecule?
A: The value was 1.34 ± 0.48 Log10 CFU/g.

Q: What about the “thermotolerant spore counts, TSA, Exp 3” value (thermotolerant spores; Exp 3, pasteurized) of the same molecule?
A: Its value is 0.69 ± 0.36 Log10 CFU/g.

Q: And the “thermotolerant spore counts, TSA, Exp 4” value (thermotolerant spores; Exp 4, pasteurized)?
A: Its value is 0.44 ± 0.3 Log10 CFU/g.

Q: And the “thermotolerant spore counts, TSA, Exp 5” value (thermotolerant spores; Exp 5, pasteurized)?
A: Its value is 0 ± 0 Log10 CFU/g.

Q: And the “presumptive Lactic Acid bacteria counts, MRS agar, Exp 1” value ([1]; Exp 1)?
A: The value was 7.79 ± 0.17 Log10 CFU/g.

Q: And the “presumptive Lactic Acid bacteria counts, MRS agar, Exp 2” value ([1]; Exp 2)?
A: Its value is 7.26 ± 0.34 Log10 CFU/g.

Q: What about the “presumptive Lactic Acid bacteria counts, MRS agar, Exp 3” value ([1]; Exp 3) of the same molecule?
A: Its value is 6.26 ± 0.83 Log10 CFU/g.

Q: What about the “presumptive Lactic Acid bacteria counts, MRS agar, Exp 4” value ([1]; Exp 4) of the same molecule?
A: The value was 5.1 ± 0.99 Log10 CFU/g.

Q: What about the “presumptive Lactic Acid bacteria counts, MRS agar, Exp 5” value ([1]; Exp 5) of the same molecule?
A: Its value is 2.85 ± 0.96 Log10 CFU/g.
